Measured values taken from patent US5703087A, “Phenyl indole compounds” (H. Lundbeck A/S, priority 1993, dated 1997).
Where a name gives a salt, the structure may show the parent alone. Read-outs that look alike come from different tables or passages of the source.

Columns and labels:
5-HT2 = test: Quipazine inhibition (quipazine induced head twitches in rats); type: in vivo; conditions: Rattus norvegicus
Source text: Quipazine is a 5-HT2 agonist, which induces head twitches in rats.

dopamine D2 receptors = target: T1, dopamine D2 receptors (Rattus norvegicus, UniProt P61169); test: Inhibition of 3H-Spiperone binding to dopamine D2 receptors in rat corpus striatum in vitro; conditions: 0.5 nM 3H-spiperone, rat corpus striatum membranes, read-out: Dopamine D2 binding [^3 H]-spiroperidol
T1 construct: dopamine D2 receptors in membranes from rat corpus striatum; from tissue; host or cells: rat corpus striatum membranes
T1 sequence (P61169 whole entry): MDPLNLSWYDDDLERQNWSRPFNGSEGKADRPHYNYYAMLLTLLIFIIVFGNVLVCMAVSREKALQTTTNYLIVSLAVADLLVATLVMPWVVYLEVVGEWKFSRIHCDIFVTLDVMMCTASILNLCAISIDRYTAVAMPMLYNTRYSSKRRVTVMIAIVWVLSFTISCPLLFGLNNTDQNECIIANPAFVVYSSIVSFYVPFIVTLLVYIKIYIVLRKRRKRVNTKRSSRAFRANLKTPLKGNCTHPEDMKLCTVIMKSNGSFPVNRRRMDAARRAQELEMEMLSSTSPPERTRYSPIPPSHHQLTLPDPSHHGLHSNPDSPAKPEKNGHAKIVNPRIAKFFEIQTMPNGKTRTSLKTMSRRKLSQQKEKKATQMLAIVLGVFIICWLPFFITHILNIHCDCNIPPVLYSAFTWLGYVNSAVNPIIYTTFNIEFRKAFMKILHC
Experimental: Inhibition of ^3 H-Spiperone Binding to Dopamine D2 Receptors in Rat Corpus Striatum in vitro
By this method the inhibition by drugs of the binding of ^3 H-spiperone (0.5 nM) to dopamine D2 receptors in membranes from rat corpus striatum is determined in vitro.

5-HT2 receptors = target: T2, 5-HT2 receptors (Rattus norvegicus, UniProt P14842); test: Inhibition of 3H-Ketanserin binding to 5-HT2 receptors in membranes from rat cortex in vitro; conditions: 0,5 nM 3H-ketanserin
T2 construct: 5-HT2 receptors in membranes from rat; from tissue; host or cells: rat cortex membranes
T2 sequence (P14842 whole entry): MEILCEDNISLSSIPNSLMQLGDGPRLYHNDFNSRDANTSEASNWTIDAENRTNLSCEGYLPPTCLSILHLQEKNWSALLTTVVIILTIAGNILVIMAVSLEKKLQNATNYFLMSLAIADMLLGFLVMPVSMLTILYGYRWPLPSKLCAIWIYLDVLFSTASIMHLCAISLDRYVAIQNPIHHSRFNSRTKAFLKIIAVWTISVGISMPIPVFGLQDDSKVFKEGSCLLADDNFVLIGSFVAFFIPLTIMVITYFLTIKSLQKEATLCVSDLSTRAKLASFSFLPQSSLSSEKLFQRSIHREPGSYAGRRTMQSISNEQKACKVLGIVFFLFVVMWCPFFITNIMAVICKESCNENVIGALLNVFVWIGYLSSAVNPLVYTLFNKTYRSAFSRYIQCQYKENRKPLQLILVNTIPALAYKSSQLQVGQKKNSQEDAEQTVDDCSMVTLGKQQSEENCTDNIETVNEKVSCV
Experimental: Inhibition of ^3 H-Ketanserin Binding To 5-HT2 Receptors in […] Cortex in vitro
By this method the inhibition by drugs of the binding of ^3 H-Ketanserin (0,5 nM) to 5-HT2 receptors in membranes from rat is determined in vitro. The method is described in Hyttel, Pharmacology & Toxicology 61, 126-129, 1987.

[1] = Catalepsy in rats (vertical wire mesh); conditions: rat, in vivo, 1-6 hours, sc
Experimental: Evaluation of catalepsy is made according to Arnt (Eur. J. Pharmacol. 90, 47-55 (1983)). Test compound is given s.c. in different doses. The rat (170-240 g) is placed on a vertical wire mesh (mesh diameter 12 mm). The rat is considered cataleptogenic if it remains immobile for more than 15 sec. The maximum number of rats showing catalepsy within the first 6 hours is recorded for each dose group. The results are recorded in fractions and an ED50 value is calculated by means of log-probit analysis.

[2] = in vivo; cited from earlier work
[3] = po, 24 h, read-out: Quipazine inhibition 24 hours (po) ED50
[4] = sc, 2 h, read-out: Quipazine inhibition 2 hours (sc) ED50
[5] = rats, 2 hours, sc, read-out: Quipazine inhibition 2 hours (sc) ED50
[6] = rats, 24 hours, po, read-out: Quipazine inhibition 24 hours (po) ED50

Structure (SMILES) | ED50 (5-HT2; [3]) | ED50 (5-HT2; [4]) | IC50 (dopamine D2 receptors) | IC50 (5-HT2 receptors) | ED50 at 6 h [1] | ED50 (5-HT2; [5]) | ED50 (5-HT2; [6]) | anxiolytic activity [2]
O=C1NCC(O)N1CCN1CCC(c2cn(-c3ccc(F)cc3)c3ccc(Cl)cc23)CC1 (centres unmarked) [Compound 1, 1-[2-[4-[5-chloro-1-(4-fluorophenyl)-1H-indol-3-yl]piperidin-1-yl]ethyl]-5-hydroxyimidazolidin-2-one] | 0.085 µmol/kg | 0.099 µmol/kg | 5.5 nM | 1.4 nM | 39 µmol/kg | – | – | –
COC1CNC(=O)N1CCN1CCC(c2cn(-c3ccc(F)cc3)c3ccc(Cl)cc23)CC1 (centres unmarked) [Compound 3, 1-[2-[4-[5-chloro-1-(4-fluorophenyl)-1H-indol-3-yl]piperidin-1-yl]ethyl]-5-methoxyimidazolidin-2-one, fumarate] | – | – | 13 nM | 1.5 nM | 17 µmol/kg | – | – | –
[2H]C1([2H])NC(=O)N(CCN2CCC(c3cn(-c4ccc(F)cc4)c4ccc(Cl)cc34)CC2)C1([2H])[2H] [Compound 4, 1-[2-[4-[5-Chloro-1-(4-fluorophenyl)-1H-indol-3-yl]piperidin-1-yl]ethyl]-4,4,5,5-tetradeuteroimidazolidin-2-one] | – | – | – | – | > 45 µmol/kg | 0.07 µmol/kg | < 0.0056 µmol/kg | –
[2H]C1([2H])CN(CCN2CCC(c3cn(-c4ccc(F)cc4)c4ccc(Cl)cc34)CC2)C(=O)N1 [Compound 5, 1-[2-[4-[5-Chloro-1-(4-fluorophenyl)-1H-indol-3-yl]piperidin-1-yl]ethyl]-4,4-dideuteroimidazolidin-2-one] | – | – | – | – | > 45 µmol/kg | 0.055 µmol/kg | 0.0097 µmol/kg | –
[2H]C1([2H])CNC(=O)N1CCN1CCC(c2cn(-c3ccc(F)cc3)c3ccc(Cl)cc23)CC1 [Compound 6, 1-[2-[4-[5-Chloro-1-(4-fluorophenyl)-1H-indol-3-yl]piperidin-1-yl]ethyl]-5,5-dideuteroimidazolidin-2-one] | – | – | – | – | 30 µmol/kg | 0.02 µmol/kg | 0.012 µmol/kg | –
O=C1NC(O)C(=O)N1CCN1CCC(c2cn(-c3ccc(F)cc3)c3ccc(Cl)cc23)CC1 (centres unmarked) [Compound 7a, 1-[2-[4-[5-Chloro-1-(4-fluorophenyl)-1H-indol-3-yl]piperidin-1-yl]ethyl]-4-hydroxyimidazolidin-2,5-dione] | – | – | 18 nM | 6.6 nM | > 42 µmol/kg | – | – | –
O=C1NC(=O)N(CCN2CCC(c3cn(-c4ccc(F)cc4)c4ccc(Cl)cc34)CC2)C1O (centres unmarked) [Compound 7b, 1-[2-[4-[5-chloro-1-(4-fluorophenyl)-1H-indol-3-yl]piperidin-1-yl]ethyl]-5-hydroxyimidazolidin-2,4-dione] | – | – | 23 nM | 9.8 nM | > 21 µmol/kg | – | – | –
CC1(C)CN(CCN2CCC(c3cn(-c4ccc(F)cc4)c4ccc(Cl)cc34)CC2)C(=O)N1 [Compound 8, 1-[2-[4-[5-Chloro-1-(4-fluorophenyl)-1H-indol-3-yl]piperidin-1-yl]ethyl]-4,4-dimethylimidazolidin-2-one] | 0.013 µmol/kg | 0.035 µmol/kg | 18 nM | 2 nM | > 43 µmol/kg | – | – | –
CC1(C)CNC(=O)N1CCN1CCC(c2cn(-c3ccc(F)cc3)c3ccc(Cl)cc23)CC1 [Compound 9, 1-[2-[4-[5-Chloro-1-(4-fluorophenyl)-1H-indol-3-yl]piperidin-1-yl]ethyl]-5,5-dimethylimidazolidin-2-one] | 0.078 µmol/kg | 0.13 µmol/kg | 14 nM | 1.7 nM | > 43 µmol/kg | – | – | –
CC1(C)C(=O)NC(=O)N1CCN1CCC(c2cn(-c3ccc(F)cc3)c3ccc(Cl)cc23)CC1 [Compound 10, 1-[2-[4-[5-Chloro-1-(4-fluorophenyl)-1H-indol-3-yl]piperidin-1-yl]ethyl]-5,5-dimethylimidazolidin-2,4-dione] | – | 0.33 µmol/kg | 20 nM | 12 nM | > 30 µmol/kg | – | – | –
O=C1NC(O)C(O)N1CCN1CCC(c2cn(-c3ccc(F)cc3)c3ccc(Cl)cc23)CC1 (centres unmarked) [Compound 11, 1-[2-[4-[5-chloro-1-(4-fluorophenyl)-1H-indol-3-yl]piperidin-1-yl]ethyl]-4,5-dihydroxyimidazolidin-2-one] | – | – | 18 nM | 2.5 nM | – | – | – | –
O=C1NC2(CCCC2)CN1CCN1CCC(c2cn(-c3ccc(F)cc3)c3ccc(Cl)cc23)CC1 [Compound 12, 3-[2-[4-[5-Chloro-1-(4-fluorophenyl)-1H-indol-3-yl]piperidin-1-yl]ethyl]-1,3-diazaspiro[4.4]nonan-2-one] | 0.037 µmol/kg | 0.076 µmol/kg | 19 nM | 4.7 nM | > 40 µmol/kg | – | – | –
O=C1NCC2(CCCC2)N1CCN1CCC(c2cn(-c3ccc(F)cc3)c3ccc(Cl)cc23)CC1 [Compound 13, 1-[2-[4-[5-Chloro-1-(4-fluorophenyl)-1H-indol-3-yl]piperidin-1-yl]ethyl]-1,3-diazaspiro[4.4]nonan-2-one] | 0.45 µmol/kg | 0.088 µmol/kg | 30 nM | 4.5 nM | > 40 µmol/kg | – | – | –
O=C1NCCN1CCN1CCC(c2cn(-c3ccc(F)cc3)c3ccc(Cl)cc23)CC1 [sertindole, 1-[2-[4-[5-chloro-1-(4-fluorophenyl)-1H-indol-3-yl]piperidin-1-yl]ethyl]-2-imidazolidinone, reference compound] | – | – | – | – | > 91 µmol/kg | 0.035 µmol/kg | 0.039 µmol/kg | found to show anxiolytic activity
